Results: patent US10206937B2, “Boronic acid derivatives and therapeutic uses thereof” (Qpex Biopharma, Inc., priority 2014, dated 2019)

Tested on: strains of Enterobacteriaceae producing various carbapenemases (class A, D and B; 104 strains)
Assay: Antibiotics potentiation by Compound 27 (MIC; meropenem, doripenem, ertapenem, cefepime)
Format: cell-based
Details: + 27 = with Compound 27 at fixed 4 μg/ml

COc1ccc2c(c1C(=O)O)OB(O)C(Sc1nnc(N)s1)C2 (centres unmarked) [M + 27]
MIC (strain CF1012 Citrobacter freundii (KPC-2)): X (MIC of less than 1 μg/mL) | MIC (strain CF1021 Citrobacter freundii (CMY-type; VIM-1)): X (MIC of less than 1 μg/mL) | MIC (strain CF1022 Citrobacter freundii (SHV-12(2be), TEM-OSBL(2b); IMP-8)): X (MIC of less than 1 μg/mL) | MIC (strain CF1023 Citrobacter freundii (SHV-12(2be), TEM-OSBL(2b); CTX-M-3; CMY-34; NDM-1)): X (MIC of less than 1 μg/mL) | MIC (strain CL1080 Enterobacter cloacae (IMP-1)): X (MIC of less than 1 μg/mL) | MIC (strain EA1019 Enterobacter aerogenes (SHV-5, VIM-1)): X (MIC of less than 1 μg/mL) | MIC (strain EC1007 Escherichia coli (KPC-3)): X (MIC of less than 1 μg/mL) | MIC (strain EC1061 Escherichia coli (NDM-1, CMY-6)): X (MIC of less than 1 μg/mL) | MIC (strain EC1062 Escherichia coli (OXA-48, CTX-M-15)): X (MIC of less than 1 μg/mL) | MIC (strain EC1064 Escherichia coli (NDM-1, CMY-6, CTX-M-15)): Y (MIC of 1 μg/mL to 10 μg/mL) | MIC (strain EC1065 Escherichia coli (IMP-1)): X (MIC of less than 1 μg/mL) | MIC (strain EC1068 Escherichia coli (VIM-1)): X (MIC of less than 1 μg/mL) | MIC (strain EC1069 Escherichia coli (CTX-M-27; NDM-1)): X (MIC of less than 1 μg/mL) | MIC (strain EC1070 Escherichia coli (TEM-OSBL(2b); CMY-42; NDM-5)): X (MIC of less than 1 μg/mL) | MIC (strain EC1072 Escherichia coli (CTX-M-3; NDM-1)): X (MIC of less than 1 μg/mL) | MIC (strain ECL1004 Enterobacter cloacae (NMC-A)): X (MIC of less than 1 μg/mL) | MIC (strain ECL1026 Enterobacter cloacae (KPC-2, TEM-1)): X (MIC of less than 1 μg/mL) | MIC (strain ECL1036 Enterobacter cloacae (KPC-3, TEM-1)): X (MIC of less than 1 μg/mL) | MIC (strain ECL1045 Enterobacter cloacae (VIM-1)): X (MIC of less than 1 μg/mL) | MIC (strain ECL1055 Enterobacter cloacae (KPC-3, TEM)): X (MIC of less than 1 μg/mL) | MIC (strain ECL1057 Enterobacter cloacae (NDM-1, TEM-1, CTX-M-15)): Z (MIC of greater than 10 μg/mL) | MIC (strain ECL1058 Enterobacter cloacae (KPC-3, SHV-11, TEM-1)): X (MIC of less than 1 μg/mL) | MIC (strain ECL1059 Enterobacter cloacae (KPC-3, SHV-12, TEM-1)): X (MIC of less than 1 μg/mL) | MIC (strain ECL1061 Enterobacter cloacae (KPC-3, Hyper AmpC expression)): X (MIC of less than 1 μg/mL) | MIC (strain ECL1082 Enterobacter cloacae (VIM-1)): X (MIC of less than 1 μg/mL) | MIC (strain ECL1084 Enterobacter cloacae (CTX-M-15; ACT-16; NDM-1)): X (MIC of less than 1 μg/mL) | MIC (strain ECL1085 Enterobacter cloacae (SHV-31(2be), TEM-1(2b); CTX-M-15; NDM-1)): X (MIC of less than 1 μg/mL) | MIC (strain ECL1086 Enterobacter cloacae (VIM-31, OXA-48(c))): X (MIC of less than 1 μg/mL) | MIC (strain ECL1087 Enterobacter cloacae (VIM-1)): X (MIC of less than 1 μg/mL) | MIC (strain ECL1088 Enterobacter cloacae (TEM-1(2b); CTX-M-14; ACT-type; VIM-1)): X (MIC of less than 1 μg/mL) | MIC (strain ECL1089 Enterobacter cloacae (ACT-type; IMP-1)): Y (MIC of 1 μg/mL to 10 μg/mL) | MIC (strain ECL1090 Enterobacter cloacae (TEM-1(2b); CTX-M-22; ACT-type; IMP-8)): X (MIC of less than 1 μg/mL) | MIC (strain ECL1091 Enterobacter cloacae (VIM-1)): X (MIC of less than 1 μg/mL) | MIC (strain ECL1092 Enterobacter cloacae (TEM-OSBL(2b); ACT-32; VIM-1)): X (MIC of less than 1 μg/mL) | MIC (strain ECL1093 Enterobacter cloacae (TEM-OSBL(2b); ACT-32; VIM-1)): X (MIC of less than 1 μg/mL) | MIC (strain ECL1094 Enterobacter cloacae (VIM-1)): X (MIC of less than 1 μg/mL) | MIC (strain ECL1096 Enterobacter cloacae (CMY-4, VIM-4, OXA-48(c))): X (MIC of less than 1 μg/mL) | MIC (strain ECL1097 Enterobacter cloacae (SHV-31(2be), TEM-OSBL(2b); CTX-M-15; ACT-31; NDM-1)): X (MIC of less than 1 μg/mL) | MIC (strain ECL1098 Enterobacter cloacae (TEM-OSBL(2b); DHA-1; ACT-16; NDM-1)): X (MIC of less than 1 μg/mL) | MIC (strain KP1001 Klebsiella pneumoniae (KPC TEM SHV)): Y (MIC of 1 μg/mL to 10 μg/mL) | MIC (strain KP1002 Klebsiella pneumoniae (KPC TEM SHV)): X (MIC of less than 1 μg/mL) | MIC (strain KP1003 Klebsiella pneumoniae (KPC TEM SHV)): X (MIC of less than 1 μg/mL) | MIC (strain KP1004 Klebsiella pneumoniae (KPC-2, TEM-1, SHV-11)): X (MIC of less than 1 μg/mL) | MIC (strain KP1008 Klebsiella pneumoniae (KPC-2)): X (MIC of less than 1 μg/mL) | MIC (strain KP1014 Klebsiella pneumoniae (VIM-1, TEM, SHV)): X (MIC of less than 1 μg/mL) | MIC (strain KP1054 Klebsiella pneumoniae (VIM-1, SHV-11)): X (MIC of less than 1 μg/mL) | MIC (strain KP1059 Klebsiella pneumoniae (VIM-1, SHV-11)): Y (MIC of 1 μg/mL to 10 μg/mL) | MIC (strain KP1061 Klebsiella pneumoniae (KPC-3, SHV-11, TEM-1)): X (MIC of less than 1 μg/mL) | MIC (strain KP1064 Klebsiella pneumoniae (KPC-2, SHV-11, TEM-1)): Y (MIC of 1 μg/mL to 10 μg/mL) | MIC (strain KP1065 Klebsiella pneumoniae (VIM-1, SHV-11)): X (MIC of less than 1 μg/mL) | MIC (strain KP1070 Klebsiella pneumoniae (KPC-2, SHV-11, TEM-1)): X (MIC of less than 1 μg/mL) | MIC (strain KP1074 Klebsiella pneumoniae (KPC-3, SHV-11, TEM)): Z (MIC of greater than 10 μg/mL) | MIC (strain KP1081 Klebsiella pneumoniae (NDM-1, TEM-1, SHV-11, CMY-6, CTX-M-15)): X (MIC of less than 1 μg/mL) | MIC (strain KP1082 Klebsiella pneumoniae (KPC-2, SHV-1)): X (MIC of less than 1 μg/mL) | MIC (strain KP1083 Klebsiella pneumoniae (KPC-3, SHV-1, TEM-1)): X (MIC of less than 1 μg/mL) | MIC (strain KP1084 Klebsiella pneumoniae (KPC-3, SHV-11, TEM-1)): Y (MIC of 1 μg/mL to 10 μg/mL) | MIC (strain KP1086 Klebsiella pneumoniae (OXA-48, CTX-M-15, TEM, SHV)): Y (MIC of 1 μg/mL to 10 μg/mL) | MIC (strain KP1087 Klebsiella pneumoniae (KPC-2, CTX-M-15, SHV-11, TEM-1)): Y (MIC of 1 μg/mL to 10 μg/mL) | MIC (strain KP1088 Klebsiella pneumoniae (KPC-3, SHV-11, TEM-1)): X (MIC of less than 1 μg/mL) | MIC (strain KP1089 Klebsiella pneumonias (OXA-181, CTX-M-15, TEM, SHV)): X (MIC of less than 1 μg/mL) | MIC (strain KP1095 Klebsiella pneumoniae (KPC-2 TEM-1 SHV-1)): X (MIC of less than 1 μg/mL) | MIC (strain KP1096 Klebsiella pneumoniae (KPC-2 TEM-181 SHV-11)): X (MIC of less than 1 μg/mL) | MIC (strain KP1097 Klebsiella pneumonias (IMP-1)): X (MIC of less than 1 μg/mL) | MIC (strain KP1098 Klebsiella pneumoniae (IMP-26)): Y (MIC of 1 μg/mL to 10 μg/mL) | MIC (strain KP1104 Klebsiella pneumoniae (KPC TEM)): X (MIC of less than 1 μg/mL) | MIC (strain KP1105 Klebsiella pneumoniae (KPC TEM SHV)): X (MIC of less than 1 μg/mL) | MIC (strain KP1159 Klebsiella pneumoniae (SHV-1(2b); CTX-M-15; IMP-4)): X (MIC of less than 1 μg/mL) | MIC (strain KP1160 Klebsiella pneumoniae (SHV-28(2be); CTX-M-15; IMP-26)): X (MIC of less than 1 μg/mL) | MIC (strain KP1161 Klebsiella pneumoniae (NDM-1)): X (MIC of less than 1 μg/mL) | MIC (strain KP1164 Klebsiella pneumoniae (SHV-12(2be); VIM-1)): X (MIC of less than 1 μg/mL) | MIC (strain KP1165 Klebsiella pneumoniae (SHV-11(2b); CTX-M-15; VIM-27)): Z (MIC of greater than 10 μg/mL) | MIC (strain KP1166 Klebsiella pneumoniae (SHV-5(2be); VIM-26)): Y (MIC of 1 μg/mL to 10 μg/mL) | MIC (strain KP1167 Klebsiella pneumoniae (SHV-12(2be); VIM-1)): X (MIC of less than 1 μg/mL) | MIC (strain KP1169 Klebsiella pneumoniae (SHV-11(2b); VIM-1)): X (MIC of less than 1 μg/mL) | MIC (strain KP1170 Klebsiella pneumoniae (SHV-11(2b); CTX-M-15; NDM-1)): X (MIC of less than 1 μg/mL) | MIC (strain KP1172 Klebsiella pneumoniae (SHV-31(2be); DHA-1; VIM-1)): X (MIC of less than 1 μg/mL) | MIC (strain KP1173 Klebsiella pneumoniae (TEM-33(2br); CTX-M-15; IMP-1)): X (MIC of less than 1 μg/mL) | MIC (strain KP1174 Klebsiella pneumoniae (CTX-M-14; IMP-1)): X (MIC of less than 1 μg/mL) | MIC (strain KP1175 Klebsiella pneumoniae (SHV-OSBL(2b); VIM-1)): X (MIC of less than 1 μg/mL) | MIC (strain KP1177 Klebsiella pneumoniae (SHV-OSBL(2b), TEM-OSBL(2b); CTX-M-15; NDM-1)): X (MIC of less than 1 μg/mL) | MIC (strain KP1178 Klebsiella pneumoniae (SHV-OSBL(2b;) TEM-OSBL(2b); CTX-M-15; NDM-1)): X (MIC of less than 1 μg/mL) | MIC (strain KP1179 Klebsiella pneumoniae (SHV-12(2be), TEM-OSBL(2b); CTX-M-15; NDM-7)): X (MIC of less than 1 μg/mL) | MIC (strain KP1180 Klebsiella pneumoniae (SHV-OSBL(2b), TEM-OSBL(2b); CTX-M-15; DHA-1; IMP-26)): X (MIC of less than 1 μg/mL) | MIC (strain KP1181 Klebsiella pneumoniae (SHV-OSBL(2b); CTX-M-15; IMP-26)): X (MIC of less than 1 μg/mL) | MIC (strain KP1183 Klebsiella pneumoniae (SHV-OSBL(2b), TEM-OSBL(2b); CTX-M-15; NDM-1)): X (MIC of less than 1 μg/mL) | MIC (strain KP1184 Klebsiella pneumoniae (SHV-OSBL(2b); IMP-1)): X (MIC of less than 1 μg/mL) | MIC (strain KP1185 Klebsiella pneumoniae (SHV-OSBL(2b), TEM-OSBL(2b); IMP-4)): Y (MIC of 1 μg/mL to 10 μg/mL) | MIC (strain KP1186 Klebsiella pneumoniae (CTX-M-15; NDM-1)): X (MIC of less than 1 μg/mL) | MIC (strain KP1187 Klebsiella pneumoniae (SHV-55(2be), TEM-OSBL(2b); CTX-M-15; NDM-1)): X (MIC of less than 1 μg/mL) | MIC (strain KP1188 Klebsiella pneumoniae (SHV-OSBL(2b); CTX-M-15; NDM-1)): Y (MIC of 1 μg/mL to 10 μg/mL) | MIC (strain KP1189 Klebsiella pneumoniae (TEM-OSBL(2b); CTX-M-15; CTX-M-27; NDM-1)): X (MIC of less than 1 μg/mL) | MIC (strain KPM1123 Klebsiella pneumoniae (KPC-2 TEM SHV)): X (MIC of less than 1 μg/mL) | MIC (strain KPM1202 Klebsiella pneumoniae (KPC SHV TEM)): X (MIC of less than 1 μg/mL) | MIC (strain KPM1203 Klebsiella pneumoniae (KPC SHV TEM)): X (MIC of less than 1 μg/mL) | MIC (strain KPM1344 Klebsiella pneumoniae (VIM-1)): X (MIC of less than 1 μg/mL) | MIC (strain KPM1345 Klebsiella pneumoniae (VIM-1 SHV)): X (MIC of less than 1 μg/mL) | MIC (strain KPM1347 Klebsiella pneumoniae (NDM-1 SHV CTX-M-15)): X (MIC of less than 1 μg/mL) | MIC (strain KX1017 Klebsiella oxytoca (KPC-2, OXA-2, SHV-30)): X (MIC of less than 1 μg/mL) | MIC (strain KX1018 Klebsiella oxytoca (KPC-2, SHV-40, OXY-1)): X (MIC of less than 1 μg/mL) | MIC (strain KX1019 Klebsiella oxytoca (KPC-2, OXA-2)): X (MIC of less than 1 μg/mL) | MIC (strain PM1024 Proteus mirabilis (TEM-1(2b); CMY-16; VIM-1)): X (MIC of less than 1 μg/mL) | MIC (strain PM1026 Proteus mirabilis (DHA-1; IMP-26)): X (MIC of less than 1 μg/mL) | MIC (strain PM1027 Proteus mirabilis (VIM-5)): X (MIC of less than 1 μg/mL) | MIC (strain SM1023 Serratia marcescens (VIM-4)): Y (MIC of 1 μg/mL to 10 μg/mL)
